Assay: RP-HPLC temperature profiling (peptide self-association parameter PA)
Format: physicochemical
Conditions: enantiomer pairs of V681 analogs, 5° C. to 80° C., relative to peptide C
Method in brief: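 Peptide retention was profiled by RP-HPLC at pH 2 from 5 °C to 80 °C in 3 °C increments, using a linear gradient of 0.5% acetonitrile/min. The monomeric random-coil control peptide C profile was subtracted. PA is the maximum change in retention time relative to control C; higher PA means greater self-association.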

**Q.** With CC[C@@H](C)[C@@H](NC(=O)[C@@H](C)NC(=O)[C@@H](CCCCN)NC(=O)[C@@H](CC(C)C)NC(=O)[C@@H](C)NC(=O)[C@H](NC(=O)[C@@H](Cc1c[nH]cn1)NC(=O)[C@@H](CC(C)C)NC(=O)[C@H](NC(=O)[C@H](NC(=O)[C@@H](CCCCN)NC(=O)[C@@H](CCCCN)NC(=O)[C@@H](C)NC(=O)[C@@H](CO)NC(=O)[C@@H](CCCCN)NC(=O)[C@@H](Cc1ccccc1)NC(=O)[C@H](NC(=O)[C@@H](CCCCN)NC(=O)[C@@H](CC(C)C)NC(=O)[C@@H](Cc1ccccc1)NC(=O)[C@@H](CO)NC(=O)[C@@H](CCCCN)NC(=O)[C@@H](Cc1c[nH]c2ccccc12)NC(=O)[C@@H](CCCCN)NC(C)=O)[C@H](C)O)[C@H](C)O)C(C)C)[C@H](C)O)C(=O)N[C@H](CO)C(=O)N[C@H](CO)C(N)=O [Peptide D1, Ac-KWKSFLKTFKSAKKTVLHTALKAISS-amide] as the molecule, how does the “PA (peptide self-association parameter)” value read?
**A.** The value was 2.1.
